Results taken from the supplement of paper PMC11061612.

Key:
[1] = system: PANC-03-27 (Pancreatic Carcinoma); test: Bliss excess, mean over the matrix (fraction); higher = more synergy
Summary of the method: (§1)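 Cell lines in DMEM/F12 or RPMI with 10% FBS were plated in 1536-well plates, held 24 hours at 37°C, 5% CO2, then given two-drug dose matrices for 72 hours (DMSO typically 0.2%). Viability was read by CellTiter-Glo 2.0 luminescence and scaled as inhibition from 0 (vehicle wells) to 1 (blank wells). Combination Emax is the second-highest inhibition in the matrix; Bliss excess is observed combination effect minus expected EA + EB − EA·EB, EA and EB being single-agent effects.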

[2] = system: RKN (Other Solid Carcinomas); test: as above
Summary of the method: as §1

[3] = system: SF539 (Glioblastoma); test: as above
Summary of the method: as §1

[4] = system: WM278 (Melanoma); test: combination Emax (second highest fraction inhibited in the dose matrix, 72 h); higher = more inhibition; extreme values may be limits of the assay
Summary of the method: as §1

[5] = system: MFE-280 (Endometrial Carcinoma); test: as above
Summary of the method: as §1

[6] = system: OVMIU (Ovarian Carcinoma); test: as above
Summary of the method: as §1

[7] = system: 23132-87 (Gastric Carcinoma); test: as above
Summary of the method: as §1

[8] = system: CAL-120 (Breast Carcinoma); test: as above
Summary of the method: as §1

[9] = system: CAL-62 (Thyroid Gland Carcinoma); test: as above
Summary of the method: as §1

[10] = system: RKN (Other Solid Carcinomas); test: as above
Summary of the method: as §1

[11] = system: WM793B (Melanoma); test: as above
Summary of the method: as §1

[12] = system: SHP-77 (Small Cell Lung Carcinoma); test: as above
Summary of the method: as §1

[13] = system: RERF-LC-Sq1 (Squamous Cell Lung Carcinoma); test: as above
Summary of the method: as §1

[14] = system: COLO-680N (Esophageal Squamous Cell Carcinoma); test: as above
Summary of the method: as §1

[15] = system: A2058 (Melanoma); test: as above
Summary of the method: as §1

[16] = system: MKN45 (Gastric Carcinoma); test: as above
Summary of the method: as §1

[17] = system: IST-MES1 (Mesothelioma); test: as above
Summary of the method: as §1

[18] = system: TE-8 (Esophageal Squamous Cell Carcinoma); test: as above
Summary of the method: as §1

[19] = system: SU-DHL-10 (B-Cell Non-Hodgkin's Lymphoma); test: as above
Summary of the method: as §1

[20] = system: REH (B-Lymphoblastic Leukemia); test: as above
Summary of the method: as §1
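Wherever Bliss excess, mean over the matrix is given: after 72 h of two-drug dosing.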

Compound | Bliss excess [1] | Bliss excess [2] | Bliss excess [3] | combination Emax [4] | combination Emax [5] | combination Emax [6] | combination Emax [7] | combination Emax [8] | combination Emax [9] | combination Emax [10] | combination Emax [11] | combination Emax [12] | combination Emax [13] | combination Emax [14] | combination Emax [15] | combination Emax [16] | combination Emax [17] | combination Emax [18] | combination Emax [19] | combination Emax [20]
Cc1cc2ncnn2cc1Nc1ncc2c(n1)n(C1CCOCC1)c(=O)n2C [AZD7648] + C=CCn1c(=O)c2cnc(Nc3ccc(N4CCN(C)CC4)cc3)nc2n1-c1cccc(C(C)(C)O)n1 [AZD1775] (first compound max 10 µM, partner max 1 µM) | -0.048 | 0.0089 | 0.0049 | 0.254 | 0.355 | 0.635 | 0.659 | 0.498 | 0.69 | 0.248 | 0.584 | 0.432 | 0.672 | 0.353 | 0.24 | 0.804 | 0.402 | 0.814 | 0.978 | 0.848
Cc1cc2ncnn2cc1Nc1ncc2c(n1)n(C1CCOCC1)c(=O)n2C [AZD7648] + CCN(CCO)CCCOc1ccc2c(Nc3cc(CC(=O)Nc4cccc(F)c4)[nH]n3)ncnc2c1 [AZD2811] (first compound max 10 µM, 7x7, partner max 1 µM) | -0.0255 | -0.0148 | 0.0118 | 0.157 | 0.377 | 0.444 | 0 | 0.334 | 0.368 | 0.211 | 0.411 | 0.258 | 0.261 | 0.236 | 0.247 | 0.446 | 0.31 | 0.354 | 0.899 | 0.51
Cc1cc2ncnn2cc1Nc1ncc2c(n1)n(C1CCOCC1)c(=O)n2C [AZD7648] + CN(C)CCCOc1ccc(-c2ccc3ncc4c(c3c2)n(C2CCOCC2)c(=O)n4C)cn1 [AZD0156] (first compound max 10 µM, 7x7, partner max 1 µM) | 0.0421 | -0.0352 | 0.0407 | 0.188 | 0.359 | 0.474 | 0.0669 | 0.414 | 0.321 | 0.194 | 0.361 | 0.223 | 0.197 | 0.188 | 0.182 | 0.428 | 0.239 | 0.325 | 0.302 | 0.258
Cc1cc2ncnn2cc1Nc1ncc2c(n1)n(C1CCOCC1)c(=O)n2C [AZD7648] + C[C@@H]1COCCN1C2=NC(=NC(=C2)C3(CC3)[S@](=N)(=O)C)C4=C5C=CNC5=NC=C4 [AZD6738] (first compound max 10 µM, 7x7, partner max 10 µM) | 0.0016 | 0.0086 | -0.0166 | 0.33 | 0.337 | 0.528 | 0.841 | 0.325 | 0.724 | 0.225 | 0.818 | 0.493 | 0.804 | 0.265 | 0.271 | 0.793 | 0.313 | 0.75 | 0.878 | 0.771
Cc1cc2ncnn2cc1Nc1ncc2c(n1)n(C1CCOCC1)c(=O)n2C [AZD7648] + O=C(c1cc(Cc2n[nH]c(=O)c3ccccc23)ccc1F)N1CCN(C(=O)C2CC2)CC1 [Olaparib] (first compound max 10 µM, 7x7, partner max 10 µM) | -0.0149 | -0.021 | -0.0236 | 0.0954 | 0.434 | 0.306 | 0.239 | 0.149 | 0.377 | 0.189 | 0.341 | 0.233 | 0.314 | 0.101 | 0.0679 | 0.264 | 0.234 | 0.184 | 0.16 | 0.187
NC1(C(=O)N[C@@H](CCO)c2ccc(Cl)cc2)CCN(c2ncnc3[nH]ccc23)CC1 [Capivasertib] + CC(=O)c1c(C)c2cnc(Nc3ccc(N4CCNCC4)cn3)nc2n(C2CCCC2)c1=O [Palbociclib] (first compound max 10 µM, 7x7, partner max 10 µM) | -0.0187 | -0.0803 | -0.0486 | 0.402 | 0.555 | 0.383 | 0.428 | 0.561 | 0.422 | 0.182 | 0.548 | 0.499 | 0.873 | 0.197 | 0.638 | 0.628 | 0.303 | 0.48 | 1 | 0.609
NC1(C(=O)N[C@@H](CCO)c2ccc(Cl)cc2)CCN(c2ncnc3[nH]ccc23)CC1 [Capivasertib] + CC(C)n1c(=O)n(C)c2cnc3cc(F)c(-c4ccc(OCCCN5CCCCC5)nc4)cc3c21 [AZD1390] (first compound max 10 µM, 7x7, partner max 0.3 µM) | 0.0162 | -0.0477 | -0.0528 | 0.316 | 0.583 | 0.353 | 0.165 | 0.454 | 0.178 | 0.365 | 0.438 | 0.226 | 0.841 | 0.197 | 0.458 | 0.432 | 0.249 | 0.502 | 1 | 0.461
NC1(C(=O)N[C@@H](CCO)c2ccc(Cl)cc2)CCN(c2ncnc3[nH]ccc23)CC1 [Capivasertib] + CCN(CCO)CCCOc1ccc2c(Nc3cc(CC(=O)Nc4cccc(F)c4)[nH]n3)ncnc2c1 [AZD2811] (first compound max 10 µM, 7x7, partner max 1 µM) | -0.0068 | -0.0711 | -0.0573 | 0.431 | 0.661 | 0.381 | 0.224 | 0.49 | 0.308 | 0.254 | 0.527 | 0.271 | 0.892 | 0.195 | 0.798 | 0.486 | 0.322 | 0.6 | 1 | 0.848
NC1(C(=O)N[C@@H](CCO)c2ccc(Cl)cc2)CCN(c2ncnc3[nH]ccc23)CC1 [Capivasertib] + COc1nnc2ccc(N3CCC(c4ccc(OCCN5CCN(C)C(=O)[C@H]5C)cc4)CC3)nn12 [AZD5153] (first compound max 10 µM, 7x7, partner max 1 µM) | -0.007 | -0.0451 | 0.0157 | 0.734 | 0.608 | 0.665 | 0.659 | 0.647 | 0.751 | 0.449 | 0.616 | 0.607 | 1 | 0.276 | 0.882 | 0.58 | 0.45 | 0.582 | 1 | 0.987
NC1(C(=O)N[C@@H](CCO)c2ccc(Cl)cc2)CCN(c2ncnc3[nH]ccc23)CC1 [Capivasertib] + C[C@@H]1COCCN1C2=NC(=NC(=C2)C3(CC3)[S@](=N)(=O)C)C4=C5C=CNC5=NC=C4 [AZD6738] (first compound max 10 µM, 7x7, partner max 10 µM) | -0.0537 | -0.124 | -0.0125 | 0.579 | 0.636 | 0.62 | 0.616 | 0.708 | 0.784 | 0.272 | 0.842 | 0.424 | 0.873 | 0.373 | 0.805 | 0.753 | 0.522 | 0.706 | 1 | 0.933
NC1(C(=O)N[C@@H](CCO)c2ccc(Cl)cc2)CCN(c2ncnc3[nH]ccc23)CC1 [Capivasertib] + Cn1cnc2c(F)c(Nc3ccc(Br)cc3Cl)c(C(=O)NOCCO)cc21 [Selumetinib] (first compound max 10 µM, 7x7, partner max 10 µM) | 0.0728 | 0.0373 | -0.0225 | 0.722 | 0.68 | 0.585 | 0.396 | 0.444 | 0.557 | 0.479 | 0.768 | 0.384 | 0.917 | 0.392 | 0.895 | 0.705 | 0.366 | 0.624 | 1 | 0.492
Cc1nc(Nc2ncc(C(=O)Nc3c(C)cccc3Cl)s2)cc(N2CCN(CCO)CC2)n1 [Dasatinib] + CC(=O)Nc1cccc(-n2c(=O)n(C3CC3)c(=O)c3c(Nc4ccc(I)cc4F)n(C)c(=O)c(C)c32)c1 [Trametinib] (first compound max 2 µM, 7x7, partner max 1 µM) | 0.0178 | 0.0011 | -0.0177 | 0.808 | 0.486 | 0.798 | 0.315 | 0.525 | 0.955 | 0.712 | 0.705 | 0.172 | 0.562 | 0.554 | 0.644 | 0.79 | 0.924 | 0.865 | 0.837 | 0.089
COc1cccc2c1C(=O)c1c(O)c3c(c(O)c1C2=O)C[C@@](O)(C(=O)CO)C[C@@H]3O[C@H]1C[C@H](N)[C@H](O)[C@H](C)O1 [Doxorubicin] + Cc1cc2ncnn2cc1Nc1ncc2c(n1)n(C1CCOCC1)c(=O)n2C [AZD7648] (first compound max 1 µM, 7x7, partner max 10 µM) | 0.0557 | 0.0697 | 0.0403 | 0.631 | 0.835 | 0.861 | 0.82 | 0.47 | 0.817 | 0.693 | 0.801 | 0.562 | 0.627 | 0.67 | 0.583 | 0.821 | 0.767 | 0.774 | 0.975 | 1
